Data as given in US20250101063A1, “POLYPEPTIDE COMPOUND AND USE THEREOF IN TREATMENT OF ENTERITIS” (Sichuan Gooddoctor Panxi Pharmaceutical Co., Ltd., priority 2022, published 2025).
Where no end group is shown, it is not given here. [ ]: non-standard residue; d: D form. pGlu = O=C1CC[C@@H](C(=O)O)N1

Experiments:
[1] = test system: zebrafish model of intestinal mucosal injury; assay: Efficacy in relieving colitis: intestinal lumen area in TNBS-treated zebrafish; assay type: in vivo; design: key to Activity in relieving intestinal lumen dilatation: * p < 0.05; ** p < 0.01; *** p < 0.001; “−“ indicates absence of activity; “+” indicates some relief of intestinal lumen dilatation; “#” indicates that all the zebrafishes died in the experiment; “&” indicates that 13 zebrafishes died in the experiment; conditions: for Intestinal lumen area (pixels, mean ± SE): 2 days after TNBS, n = 10; for Activity in relieving intestinal lumen dilatation: 1000 μg/mL, significance vs model control group of the same batch
Protocol: Experimental animals: Wild-type AB strain zebrafishes, bred by natural pair mating. Zebrafishes aged 3 days post fertilization (3 dpf). Zebrafishes were kept in fish farming water at 28° C. (water quality: 200 mg of instant sea salt in each 1L of reverse osmosis water, with the conductivity of 450-550 μS/cm; pH of 6.5-8.5; and hardness of 50-100 mg/L CaCO3), the experimental animal use license number is: SYXK (Zhe) 2012-0171, and the breeding management met the requirements of the international AAALAC certification (certification number: 001458).
(1) Grouping: Polypeptide group: prepared into a stock solution of 20.0 mg/mL with ultrapure water and stored at −20° C.
Positive control group: prednisone, as white powder, with batch number C10016501, Shanghai Macklin Biochemical Technology Co., Ltd., stored at 4° C.; prepared into a 15.0 mg/mL stock solution with DMSO, and stored in aliquots at −20° C.
Normal control group and model control group.
(2) Experimental method: 3 dpf wild-type AB strain zebrafishes were randomly selected and placed in a 6-well plate, with 30 zebrafishes in each well (experimental group). Except for the normal control group, all other experimental groups were given TNBS in water to establish the zebrafish model of intestinal mucosal injury. After 2 days of treatment at 28° C., TNBS was removed, and polypeptide compound in water (at concentrations shown in Table 4) was given respectively, and for the positive control, prednisone was 15.0 μg/mL. A normal control group (healthy group) and a model control group (intestinal mucosal injury group) were set up at the same time. The capacity of each well (experimental group) was 3 mL. After 2 days of treatment at 28° C., 10 zebrafishes were randomly selected from each experimental group and photographed under a dissecting microscope. NIS-Elements D 3.20 advanced image processing software was used to analyze and collect data, and the intestinal lumen area of the zebrafish was analyzed. The statistical analysis results of this indicator were used to evaluate the efficacy of the samples in relieving colitis. The statistics results were expressed as mean±SE. SPSS26.0 software was used for statistical analysis, and p<0.05 indicates statistically significant difference.
The concentration gradient of the test substances set in this experimental system was 250 μg/mL, 500 μg/mL, and 1000 μg/mL. […] When the concentration of the test substance was further increased for intervention, the death phenomenon of zebrafishes was found in the group; therefore, in the subsequent rounds of activity evaluation, each test polypeptide compound was uniformly administered at 1000 μg/mL for intervention.

[2] = test system: TNBS-induced model of acute inflammatory bowel disease (UC) in SD rat; assay: TNBS-induced model of acute inflammatory bowel disease (UC) in SD rat; assay type: in vivo
Description: In this experiment, a rat model of ulcerative colitis was established by administering trinitrobenzene sulfonic acid (TNBS) to laboratory animal male SD rats for a single enema intervention. Acute colitis in rats induced by trinitrobenzene sulfonic acid (TNBS) is an immune response induced by cytokines secreted by Th1 type cells. […] This model is simple to establish and has good reproducibility. It is an experimental animal model widely used in evaluating drugs for the treatment of inflammatory bowel disease. […] During the experimental treatment period (D1-D14), the body weight and general clinical observation indicators (including but not limited to food intake, water intake, activity level and defecation, etc.) of the animals in each experimental group were dynamically collected. At the same time, based on the relevant scoring standards for the disease activity index of ulcerative colitis, the reactivity such as the weight loss degree, stool morphology and trait, and bloody stool of the animals in each experimental group after TNBS induction were scored, and the disease activity index (DAI) of ulcerative colitis was calculated, once a day for 14 consecutive days. At the end point of the experiment, colon tissues of animals in each experimental group were collected, and the length and weight of the colon were measured and then the non-autopsy images were collected. Then the colon was cut open along the intestinal wall longitudinally and autopsy images were collected. Based on the “Criteria for Scoring Gross Morphological Manifestations of the Colon”, the gross damage with respect to colon adhesions, colon ulcers and inflammation of animals in each experimental group was observed and scored. Ulcer images were collected under a stereomicroscope and the area of colon ulcer foci was calculated, followed by routine fixation.

[3] = D 0-D 14, compound 12: 0.8 mg/kg, mesalazine: 30.0 mg/kg, enema once a day 14 days, mean ± SD
[4] = D 14, compound 12: 0.8 mg/kg, mesalazine: 30.0 mg/kg, enema once a day 14 days, mean ± SD
[5] = experimental endpoint, compound 12: 0.8 mg/kg, mesalazine: 30.0 mg/kg, enema once a day 14 days, mean ± SD
[6] = set treatment regimen, enema once a day 14 days, vs model control group

Row | Compound | Activity in relieving intestinal lumen dilatation [1] | also measured
1 | Arg-Lys-Val-Ala (RKVA; printed: Arg-Lys-Val-Ala) [Compound 15] | * (* p < 0.05) | Intestinal lumen area (pixels, mean ± SE) ([1]; 250 μg/mL in water): 40719 ± 4647 pixels; Intestinal lumen area (pixels, mean ± SE) ([1]; 500 μg/mL in water): 31319 ± 5274 pixels; Intestinal lumen area (pixels, mean ± SE) ([1]; 1000 μg/mL in water): 30268 ± 2437 pixels; Intestinal lumen area compared with the model control group (in words) ([1]; 250, 500, 1000 μg/mL, Table 4): significant statistical differences compared with the model control group
2 | EPVPQAKPR [Compound 57] | ** (** p < 0.01) | 
3 | KEPVPQ[dA]KPRKVAAQ [Compound 67] | * (* p < 0.05) | 
4 | KEPVPQAKPRK[dV]AAQ [Compound 72] | ** (** p < 0.01) | 
5 | EPVAQAK [Compound 54] | *** (*** p < 0.001) | 
6 | KEGVGQAKPRKVAAQ [Compound 37] | + | 
7 | D-Glu-Pro-Val-Pro-Gln-Ala-Lys ([dE]PVPQAK; also: acetate salt) [Compound 78] | + | 
8 | Pro-Val-Pro-Glu-Ala (PVPEA; printed: Pro-Val-Pro-Glu-Ala) [Compound 40] | + | 
9 | RKDVYKEPVPQAK [Compound 92] | ** (** p < 0.01) | 
10 | PVPQAKPR [Compound 59] | + | 
11 | KQPVPQAKPRKVAAQ [Compound 105] | ** (** p < 0.01) | 
12 | GPETAFLREPVPQAK [Compound 96] | *** (*** p < 0.001) | 
13 | E[dP]VPQAK [Compound 79] | + | 
14 | EPVPQAKPRKVA [Compound 51] | * (* p < 0.05) | 
15 | PVPQAKP [Compound 60] | − | 
16 | PAYKEPVPQAKPRKVAAQ [Compound 90] | * (* p < 0.05) | 
17 | KEGVPQAKGRKVAAQ [Compound 36] | + | 
18 | KEPVPQAKPR[dK]VAAQ [Compound 71] | + | 
19 | EPV[dP]QAK [Compound 81] | + | 

Row | Compound | Activity in relieving intestinal lumen dilatation [1] | also measured
20 | K[dE]PVPQAKPRKVAAQ [Compound 62] | * (* p < 0.05) | 
21 | EPVPAAK [Compound 47] | + | 
22 | Glu-Pro-Val-Pro (EPVP; printed: Glu-Pro-Val-Pro) [Compound 9] | ** (** p < 0.01) | 
23 | VPYKEPVPQAKPRKVAAQ [Compound 88] | * (* p < 0.05) | 
24 | KEGVPQAKPRKVAAQ [Compound 31] | * (* p < 0.05) | 
25 | Ala-Lys-Pro-Arg (AKPR; printed: Ala-Lys-Pro-Arg) [Compound 11] | + | 
26 | Pro-Gln-Ala-Lys (PQAK; printed: Pro-Gln-Ala-Lys) [Compound 14] | + | 
27 | KEAVPQAKPRKVAAQ [Compound 21] | + | 
28 | pyro-Glu-Leu-Lys-Glu-Pro-Val-Pro-Gln-Ala-Lys-Pro-Arg-Lys-Val-Ala-Ala-Gln ([pGlu]LKEPVPQAKPRKVAAQ; also: acetate salt) [Compound 89] | ** (** p < 0.01) | 
29 | EPVPQAKVPY [Compound 102] | + | 
30 | Nc1ccc(O)c(C(=O)O)c1 [Mesalazine, mesalazine, reference compound] |  | Body weight, Grouping day (D 0, g) ([2]; D 0, before treatment, compound 12: 0.8 mg/kg, mesalazine: 30.0 mg/kg, enema once a day, mean ± SD): 276.64 ± 7.47 g; DAI score AUC(0-14 d) (D 0-D 14) [2, 3]: 58.75 ± 2.93; Weight change range (D 0-D 14, %) [2, 3]: −4.29 ± 7.79%; DAI score, Experimental day 1 (D 1, point) ([2]; D 1, compound 12: 0.8 mg/kg, mesalazine: 30.0 mg/kg, enema once a day, mean ± SD): 4.2 ± 0.4 point; DAI score, Experimental day 3 (D 3, point) ([2]; D 3, compound 12: 0.8 mg/kg, mesalazine: 30.0 mg/kg, enema once a day, mean ± SD): 6.2 ± 0.6 point; Body weight, Experimental day 5 (D 5, g) ([2]; D 5, compound 12: 0.8 mg/kg, mesalazine: 30.0 mg/kg, enema once a day, mean ± SD): 234.86 ± 8.07 g; Body weight, Experimental endpoint (D 14, g) [2, 4]: 264.43 ± 17.65 g; DAI score, Experimental endpoint (D 14, point) [2, 4]: 2.1 ± 1.6 point; Colon length (cm) [2, 5]: 14.76 ± 2.06 cm; Colon ulcer and inflammation score (point) [2, 5]: 4.30 ± 0.95 point; Colon weight (g) [2, 5]: 3.42 ± 1.15^ g; Colonic adhesion score (point) [2, 5]: 2.60 ± 0.52 point; Effect on disease progression of ulcerative colitis / DAI scores (in words) [2, 6]: no significant effect on the disease symptoms of ulcerative colitis; Effect on weight gain inhibition / weight loss response of model animals (in words) [2, 6]: did not show a significant weight improvement effect
31 | KEPAPQAKPRKVAAQ [Compound 25] | ** (** p < 0.01) | 
32 | APVPQAK [Compound 46] | + | 
33 | EAVPQAK [Compound 53] | * (* p < 0.05) | 
34 | KEPVAQAKPRKVAAQ [Compound 22] | + | 
35 | VPPKEPVPQAKPRKVAAQ [Compound 100] | *** (*** p < 0.001) | 
36 | KEPVGQAKPRKVAAQ [Compound 32] | + | 
37 | EPVPQAR [Compound 45] | # | 
38 | KEPVPQAKGRKVAAQ [Compound 33] | + | 
